# Source: patent US9730938B2, “Bruton's tyrosine kinase inhibitor combinations and uses thereof” (Pharmacyclics LLC, priority 2014, dated 2017)
# Experiments:
# [1] = system: OCI-LY-3; test: Combined drug treatment cell viability, CellTiter-Glo assay (Example 2); type: cell-based; conditions: JAK3 10 μM / MCL-1 3 μM / medium alone, 3 days
# [2] = system: SU-DHL-2; test: as above; type: cell-based; conditions: JAK3 10 μM / MCL-1 3 μM / medium alone, 3 days
# [3] = system: TMD8; test: Combined drug treatment cell viability, CellTiter-Glo assay (Example 1); type: cell-based; conditions: IDH1i 10 uM / MALT1i 100 nM / medium alone, 3 days
# Protocol: (§1) DLBCL cells at either 1×10^4 cells or 2×10^4 cells were plated onto each well of a 96-W plate (Table 1).
# (§2) The stock solutions for the IDH1 inhibitor AGI5198 and the MALT1 inhibitor MI-2 were each prepared at 50 mM concentration.
# (§3) The 96-W plate was then incubated for 3 days. Cell viability was examined using a CellTiter-Glo assay.
# (§4) A 40 μL of CellTiter-Glo reagent was added directly into each well of the 96-W plate. The plate was then shaken on a Shaker (Labsystem Wellmix) at speed 5 for 10-20 min at room temperature. Next, 100 μL of the mixed medium was transferred to a white, non-transparent, flat bottom 96-W plate for assaying. A Flexstation 3 luminometer was used for detecting and measuring the luminescent signals. Measurements were taken at room temperature.
# (§5) In general, the combination is described as synergistic (CI<1), additive (CI=1), or antagonistic (CI>1). Synergism is further separated into very strong synergism (<0.1), strong synergism (0.1-0.3), synergism (0.3-0.7), moderate synergism (0.7-0.85), and slight synergism (0.85-0.9).
# [4] = system: SU-DHL-2; test: as above; type: cell-based; conditions: IDH1i 10 uM / MALT1i 200 nM / medium alone, 3 days
# Protocol: as §1, §2, §3, §4, §5
# [5] = system: OCI-LY-3; test: as above; type: cell-based; conditions: IDH1i 10 uM / MALT1i 5 uM / medium alone, 3 days
# Protocol: as §1, §2, §3, §4, §5
# [6] = system: OCI-LY-10; test: as above; type: cell-based; conditions: IDH1i 10 uM / MALT1i 5 uM / medium alone, 3 days
# Protocol: as §1, §2, §3, §4, §5
# [7] = system: U2932; test: as above; type: cell-based; conditions: IDH1i 10 uM / MALT1i 200 nM / medium alone, 3 days
# Protocol: as §1, §2, §3, §4, §5
# [8] = system: HBL-1; test: Combined drug treatment cell viability, CellTiter-Glo assay (Example 2); type: cell-based; conditions: JAK3 10 μM / MCL-1 3 μM / medium alone, 3 days
# [9] = system: TMD8 cells expressing PIM1 P81S; test: Cell growth of modified TMD8 cells treated with ibrutinib; conditions: Homo sapiens
# [10] = system: TMD8; test: Combined drug treatment cell viability, CellTiter-Glo assay (Example 2); type: cell-based; conditions: JAK3 10 μM / MCL-1 3 μM / medium alone, 3 days
# [11] = system: TMD8 cells expressing PIM1 S97N; test: Cell growth of modified TMD8 cells treated with ibrutinib; conditions: Homo sapiens
# [12] = system: TMD8 cells expressing PIM1 L2V; test: as above; conditions: Homo sapiens
# [13] = system: OCI-LY-10; test: Combined drug treatment cell viability, CellTiter-Glo assay (Example 2); type: cell-based; conditions: JAK3 10 μM / MCL-1 3 μM / medium alone, 3 days
# [14] = system: U2932; test: as above; type: cell-based; conditions: JAK3 10 μM / MCL-1 3 μM / medium alone, 3 days
# [15] = system: TMD8 cells expressing PIM1-WT; test: Cell growth of modified TMD8 cells treated with ibrutinib; conditions: Homo sapiens
smiles,measurement,setting,value
"C=CC(=O)N1CCC[C@@H](n2nc(-c3ccc(Oc4ccccc4)cc3)c3c(N)ncnc32)C1 [ibrutinib, 1-((R)-3-(4-amino-3-(4-phenoxyphenyl)-1H-pyrazolo[3,4-d]pyrimidin-1-yl)piperidin-1-yl)prop-2-en-1-one]",luminescence (CellTiter-Glo),[1]; ibrutinib 0.0512 nM,80095.49
same,luminescence (CellTiter-Glo),[1]; ibrutinib 0.256 nM,81910.97
same,luminescence (CellTiter-Glo),[1]; ibrutinib 1.28 nM,89730.66
same,luminescence (CellTiter-Glo),[1]; ibrutinib 6.4 nM,81709.84
same,luminescence (CellTiter-Glo),[1]; ibrutinib 32 nM,80596.96
same,luminescence (CellTiter-Glo),[1]; ibrutinib 160 nM,84190.37
same,luminescence (CellTiter-Glo),[1]; ibrutinib 800 nM,82227.41
same,luminescence (CellTiter-Glo),[1]; ibrutinib 20000 nM,69084.64
same,luminescence (CellTiter-Glo),[1]; ibrutinib 40000 nM,75112.98
same,luminescence (CellTiter-Glo),[2]; ibrutinib 0.0512 nM,168606.0
same,luminescence (CellTiter-Glo),[2]; ibrutinib 0.256 nM,180865.8
same,luminescence (CellTiter-Glo),[2]; ibrutinib 1.28 nM,185508.3
same,luminescence (CellTiter-Glo),[2]; ibrutinib 6.4 nM,178437.4
same,luminescence (CellTiter-Glo),[2]; ibrutinib 32 nM,180464.1
same,luminescence (CellTiter-Glo),[2]; ibrutinib 160 nM,183505.7
same,luminescence (CellTiter-Glo),[2]; ibrutinib 800 nM,181165.6
same,luminescence (CellTiter-Glo),[2]; ibrutinib 20000 nM,4650.6
same,luminescence (CellTiter-Glo),[2]; ibrutinib 40000 nM,180616.8
same,luminescence (CellTiter-Glo),[3]; ibrutinib 0.0256 nM,32496.06
same,luminescence (CellTiter-Glo),[3]; ibrutinib 0.128 nM,32828.16
same,luminescence (CellTiter-Glo),[3]; ibrutinib 0.64 nM,29180.29
same,luminescence (CellTiter-Glo),[3]; ibrutinib 3.2 nM,31383.77
same,luminescence (CellTiter-Glo),[3]; ibrutinib 16 nM,27190.31
same,luminescence (CellTiter-Glo),[3]; ibrutinib 80 nM,28263.05
same,luminescence (CellTiter-Glo),[3]; ibrutinib 400 nM,25674.76
same,luminescence (CellTiter-Glo),[3]; ibrutinib 2000 nM,23421.20
same,luminescence (CellTiter-Glo),[3]; ibrutinib 10000 nM,10819.72
same,luminescence (CellTiter-Glo),[4]; ibrutinib 0.0256 nM,141202.0
same,luminescence (CellTiter-Glo),[4]; ibrutinib 0.128 nM,146159.1
same,luminescence (CellTiter-Glo),[4]; ibrutinib 0.64 nM,159399.0
same,luminescence (CellTiter-Glo),[4]; ibrutinib 3.2 nM,161613.5
same,luminescence (CellTiter-Glo),[4]; ibrutinib 16 nM,155353.5
same,luminescence (CellTiter-Glo),[4]; ibrutinib 80 nM,164140.7
same,luminescence (CellTiter-Glo),[4]; ibrutinib 400 nM,159908.6
same,luminescence (CellTiter-Glo),[4]; ibrutinib 2000 nM,154426.1
same,luminescence (CellTiter-Glo),[4]; ibrutinib 10000 nM,111485.8
same,luminescence (CellTiter-Glo),[5]; ibrutinib 0.0256 nM,63957.70
same,luminescence (CellTiter-Glo),[5]; ibrutinib 0.128 nM,59441.78
same,luminescence (CellTiter-Glo),[5]; ibrutinib 0.64 nM,63322.70
same,luminescence (CellTiter-Glo),[5]; ibrutinib 3.2 nM,66789.02
same,luminescence (CellTiter-Glo),[5]; ibrutinib 16 nM,64655.70
same,luminescence (CellTiter-Glo),[5]; ibrutinib 80 nM,68972.20
same,luminescence (CellTiter-Glo),[5]; ibrutinib 400 nM,64472.02
same,luminescence (CellTiter-Glo),[5]; ibrutinib 2000 nM,55749.79
same,luminescence (CellTiter-Glo),[5]; ibrutinib 10000 nM,63477.51
same,luminescence (CellTiter-Glo),[6]; ibrutinib 0.0256 nM,61548.88
same,luminescence (CellTiter-Glo),[6]; ibrutinib 0.128 nM,68196.56
same,luminescence (CellTiter-Glo),[6]; ibrutinib 0.64 nM,63983.91
same,luminescence (CellTiter-Glo),[6]; ibrutinib 3.2 nM,51190.81
same,luminescence (CellTiter-Glo),[6]; ibrutinib 16 nM,27324.38
same,luminescence (CellTiter-Glo),[6]; ibrutinib 80 nM,23511.43
same,luminescence (CellTiter-Glo),[6]; ibrutinib 400 nM,23784.91
same,luminescence (CellTiter-Glo),[6]; ibrutinib 2000 nM,24452.84
same,luminescence (CellTiter-Glo),[6]; ibrutinib 10000 nM,24826.24
same,luminescence (CellTiter-Glo),[7]; ibrutinib 0.0256 nM,63123.80
same,luminescence (CellTiter-Glo),[7]; ibrutinib 0.128 nM,57150.28
same,luminescence (CellTiter-Glo),[7]; ibrutinib 0.64 nM,53722.16
same,luminescence (CellTiter-Glo),[7]; ibrutinib 3.2 nM,53031.79
same,luminescence (CellTiter-Glo),[7]; ibrutinib 16 nM,51023.93
same,luminescence (CellTiter-Glo),[7]; ibrutinib 80 nM,49777.58
same,luminescence (CellTiter-Glo),[7]; ibrutinib 400 nM,46009.54
same,luminescence (CellTiter-Glo),[7]; ibrutinib 2000 nM,46858.01
same,luminescence (CellTiter-Glo),[7]; ibrutinib 10000 nM,37935.94
same,luminescence (CellTiter-Glo),[8]; ibrutinib 0.0512 nM,46288.31
same,luminescence (CellTiter-Glo),[8]; ibrutinib 0.256 nM,42826.48
same,luminescence (CellTiter-Glo),[8]; ibrutinib 1.28 nM,43461.99
same,luminescence (CellTiter-Glo),[8]; ibrutinib 6.4 nM,38857.83
same,luminescence (CellTiter-Glo),[8]; ibrutinib 32 nM,35516.66
same,luminescence (CellTiter-Glo),[8]; ibrutinib 160 nM,35090.31
same,luminescence (CellTiter-Glo),[8]; ibrutinib 800 nM,35103.71
same,luminescence (CellTiter-Glo),[8]; ibrutinib 20000 nM,16831.87
same,luminescence (CellTiter-Glo),[8]; ibrutinib 40000 nM,36806.47
same,EC50,[9],> 1 µM
same,luminescence (CellTiter-Glo),[10]; ibrutinib 0.0512 nM,28324.66
same,luminescence (CellTiter-Glo),[10]; ibrutinib 0.256 nM,28516.97
same,luminescence (CellTiter-Glo),[10]; ibrutinib 1.28 nM,28727.97
same,luminescence (CellTiter-Glo),[10]; ibrutinib 6.4 nM,28578.40
same,luminescence (CellTiter-Glo),[10]; ibrutinib 32 nM,28802.75
same,luminescence (CellTiter-Glo),[10]; ibrutinib 160 nM,29096.55
same,luminescence (CellTiter-Glo),[10]; ibrutinib 800 nM,25963.61
same,luminescence (CellTiter-Glo),[10]; ibrutinib 20000 nM,5261.63
same,luminescence (CellTiter-Glo),[10]; ibrutinib 40000 nM,22488.80
same,EC50,[11],> 1 µM
same,EC50,[12],> 1 µM
same,luminescence (CellTiter-Glo),[13]; ibrutinib 0.0512 nM,46968.14
same,luminescence (CellTiter-Glo),[13]; ibrutinib 1.28 nM,28222.33
same,luminescence (CellTiter-Glo),[13]; ibrutinib 6.4 nM,17144.41
same,luminescence (CellTiter-Glo),[13]; ibrutinib 32 nM,14003.51
same,luminescence (CellTiter-Glo),[13]; ibrutinib 160 nM,13712.84
same,luminescence (CellTiter-Glo),[13]; ibrutinib 800 nM,14708.66
same,luminescence (CellTiter-Glo),[13]; ibrutinib 20000 nM,14261.89
same,luminescence (CellTiter-Glo),[13]; ibrutinib 40000 nM,15817.53
same,luminescence (CellTiter-Glo),[14]; ibrutinib 0.0512 nM,62396.81
same,luminescence (CellTiter-Glo),[14]; ibrutinib 0.256 nM,60528.12
same,luminescence (CellTiter-Glo),[14]; ibrutinib 1.28 nM,60811.50
same,luminescence (CellTiter-Glo),[14]; ibrutinib 6.4 nM,58640.71
same,luminescence (CellTiter-Glo),[14]; ibrutinib 32 nM,57009.94
same,luminescence (CellTiter-Glo),[14]; ibrutinib 160 nM,55090.45
same,luminescence (CellTiter-Glo),[14]; ibrutinib 800 nM,54579.83
same,luminescence (CellTiter-Glo),[14]; ibrutinib 20000 nM,18900.83
same,luminescence (CellTiter-Glo),[14]; ibrutinib 40000 nM,55951.28
same,EC50,[15],0.076 µM
